Laboratory results as given in ChEMBL document CHEMBL1201862, “PubChem BioAssay data set” (2004).
Activity calls are given as the source filed them.

How the values were obtained:
Interleukin-8 = Interleukin-8 (Homo sapiens, UniProt P10145); assay: SAR analysis of tumor necrosis factor alpha (TNF-alpha) induced IL-8 secretion in MCF-7/NOD1 cells. [Related pubchem assays (depositor defined):AID1575, AID2250, AID2260]; type: functional, cell-based
Tumor necrosis factor = Tumor necrosis factor (Homo sapiens, UniProt P01375); assay: TNFa-triggered NF-kB activation inhibitors, SAR follow-up, cell-based, revised (AID 2337); type: functional
Chain of Tumor necrosis factor (P01375 whole entry): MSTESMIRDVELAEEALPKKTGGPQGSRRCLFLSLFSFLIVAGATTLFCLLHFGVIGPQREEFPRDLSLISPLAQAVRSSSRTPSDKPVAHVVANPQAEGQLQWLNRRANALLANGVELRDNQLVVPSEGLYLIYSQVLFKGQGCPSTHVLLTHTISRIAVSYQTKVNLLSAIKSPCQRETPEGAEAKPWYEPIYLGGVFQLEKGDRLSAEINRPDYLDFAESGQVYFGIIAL

HEK293 = assay: cells; conditions: Homo sapiens;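 note: cells exposed to compound for 14 hours overnight before viability readout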
Vero [1] = assay: Vero E6 cell cytotoxicity, SAR follow-up, cytotoxicity control for West Nile virus antiviral project, synthesized analogs (AID 2244); type: functional; conditions: Chlorocebus sabaeus
Vero [2] = assay: West Nile virus antiviral activity, cell-based, CPE readout (AID 1621); type: functional; conditions: Chlorocebus sabaeus
Vero [3] = assay: West Nile virus cytopathic effect inhibition, cell-based (AID 2419); type: functional; conditions: Chlorocebus sabaeus
[4] = A Cell Based Assay for the Identification of Probe candidate Compounds with Anti- Venezuelan Equine Encephalitis virus. [Related pubchem assays: 2409, 2419, 1621, 2238, 2405, 2024, 2065, 2402, 2414, 1635, 1650, 2244 ]; type: functional
Vero [5] = assay: West Nile virus CPE inhibition, SAR follow-up, cell-based, synthesized analogs (AID 2238); type: functional; conditions: Chlorocebus sabaeus
Vero [6] = assay: cytotoxicity of synthesized analogs in Vero cells, SAR follow-up, cytotoxicity control for West Nile virus antiviral project, cell-based, set II (AID 2402); type: functional; conditions: Chlorocebus sabaeus
Vero [7] = assay: cytotoxicity of synthesized analogs in Vero 76, SAR follow-up, cytotoxicity control for West Nile virus antiviral project, Vero 76 cells (AID 2414); type: functional; conditions: Chlorocebus sabaeus
[8] = target: Neuropeptide Y receptor type 2 (Homo sapiens, UniProt P49146); type: functional, cell-based;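 note: HEK293 cells expressing the receptor and a CNG channel; stimulus was NPY near EC95 followed by isoproterenol to raise cAMP; antagonist potency measured as restoring cAMP signal that NPY suppresses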
Chain of Neuropeptide Y receptor type 2 (P49146 whole entry): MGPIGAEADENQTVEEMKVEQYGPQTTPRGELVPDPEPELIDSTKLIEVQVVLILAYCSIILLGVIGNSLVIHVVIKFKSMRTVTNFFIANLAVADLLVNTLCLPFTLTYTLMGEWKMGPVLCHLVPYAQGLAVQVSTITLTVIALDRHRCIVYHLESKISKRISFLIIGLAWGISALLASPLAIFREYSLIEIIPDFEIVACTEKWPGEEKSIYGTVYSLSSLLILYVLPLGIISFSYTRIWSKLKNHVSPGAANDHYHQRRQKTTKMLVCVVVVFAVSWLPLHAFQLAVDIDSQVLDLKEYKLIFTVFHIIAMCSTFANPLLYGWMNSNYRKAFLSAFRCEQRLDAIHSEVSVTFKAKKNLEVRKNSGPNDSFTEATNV

[9] = target: Neuropeptide Y receptor type 1 (Homo sapiens, UniProt P25929); type: functional;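 note: HEK293 cells with a CNG channel challenged with NPY then isoproterenol; potency as antagonist that reverses NPY suppression of cAMP signal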
Chain of Neuropeptide Y receptor type 1 (P25929 whole entry): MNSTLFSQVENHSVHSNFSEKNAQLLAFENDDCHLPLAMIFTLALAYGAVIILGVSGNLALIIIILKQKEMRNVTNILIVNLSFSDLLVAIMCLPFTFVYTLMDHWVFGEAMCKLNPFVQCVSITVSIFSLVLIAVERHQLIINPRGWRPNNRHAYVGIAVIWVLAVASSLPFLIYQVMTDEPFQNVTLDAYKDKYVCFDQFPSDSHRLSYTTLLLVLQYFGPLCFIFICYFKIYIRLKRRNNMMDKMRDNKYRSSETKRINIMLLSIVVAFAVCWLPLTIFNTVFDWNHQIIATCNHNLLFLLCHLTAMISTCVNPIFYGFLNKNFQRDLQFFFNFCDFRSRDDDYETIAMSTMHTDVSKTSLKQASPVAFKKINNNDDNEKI

[10] = target: Epstein-Barr nuclear antigen 1 (Epstein-Barr virus (strain B95-8) (HHV-4) (Human herpesvirus 4), UniProt P03211); assay: EBNA-1 inhibitors, dose response, biochemical, fluorescence polarization, 1536-well (AID 2381); parameters: species or system human gammaherpesvirus 4;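 note: fluorescence polarization of a Cy5 DNA probe bound by EBNA-1 protein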
Chain of Epstein-Barr nuclear antigen 1 (P03211 whole entry): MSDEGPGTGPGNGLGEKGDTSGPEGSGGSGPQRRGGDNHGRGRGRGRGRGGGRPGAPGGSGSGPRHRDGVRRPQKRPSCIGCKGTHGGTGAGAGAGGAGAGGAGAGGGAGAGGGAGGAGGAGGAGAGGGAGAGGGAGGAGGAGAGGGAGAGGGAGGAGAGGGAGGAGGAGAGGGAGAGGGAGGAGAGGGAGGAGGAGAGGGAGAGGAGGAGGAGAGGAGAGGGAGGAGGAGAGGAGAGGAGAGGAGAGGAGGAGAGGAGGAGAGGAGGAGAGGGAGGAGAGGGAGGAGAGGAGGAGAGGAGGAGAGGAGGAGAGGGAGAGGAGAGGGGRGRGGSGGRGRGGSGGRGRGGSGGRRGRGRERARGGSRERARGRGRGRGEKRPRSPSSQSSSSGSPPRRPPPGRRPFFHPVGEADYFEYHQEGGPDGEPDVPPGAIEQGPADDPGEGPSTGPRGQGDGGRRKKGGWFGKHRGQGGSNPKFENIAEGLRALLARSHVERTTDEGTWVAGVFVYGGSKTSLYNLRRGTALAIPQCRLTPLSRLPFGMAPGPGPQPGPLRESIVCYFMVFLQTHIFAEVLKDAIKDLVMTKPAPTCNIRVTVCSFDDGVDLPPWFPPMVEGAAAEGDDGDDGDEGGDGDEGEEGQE

[11] = target: Lytic switch protein BZLF1 (Epstein-Barr virus (strain B95-8) (HHV-4) (Human herpesvirus 4), UniProt P03206); assay: EBV ZTA inhibitors, dose response, counter-screen for EBNA-1 inhibitor project, biochemical, fluorescence polarization, Epstein-Barr virus, 1536-well (AID 2377); parameters: species or system human gammaherpesvirus 4;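 note: fluorescence polarization of Cy5-labelled ZRE DNA probe bound by purified Zta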
Chain of Lytic switch protein BZLF1 (P03206 whole entry): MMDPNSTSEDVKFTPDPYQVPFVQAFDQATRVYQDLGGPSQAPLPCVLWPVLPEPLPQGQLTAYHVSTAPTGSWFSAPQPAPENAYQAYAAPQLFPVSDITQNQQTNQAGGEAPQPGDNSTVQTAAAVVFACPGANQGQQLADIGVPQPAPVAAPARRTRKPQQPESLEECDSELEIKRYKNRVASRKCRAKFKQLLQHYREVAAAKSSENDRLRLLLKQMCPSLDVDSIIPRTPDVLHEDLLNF

[12] = inhibitors of Bluetongue virus cytopathic effect, confirmation, arbovirus, BSR cells (AID 1250); type: functional;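 note: protection from viral cytopathic effect measured as cell viability by ATP luminescence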
[13] = target: Sphingosine 1-phosphate receptor 3 (Homo sapiens, UniProt Q99500); assay: Dose response cell-based high throughput screening assay for antagonists of the Sphingosine 1-Phosphate Receptor 3 (S1P3). [Related pubchem assays: 1429, 485 ]; type: functional
Chain of Sphingosine 1-phosphate receptor 3 (Q99500 whole entry): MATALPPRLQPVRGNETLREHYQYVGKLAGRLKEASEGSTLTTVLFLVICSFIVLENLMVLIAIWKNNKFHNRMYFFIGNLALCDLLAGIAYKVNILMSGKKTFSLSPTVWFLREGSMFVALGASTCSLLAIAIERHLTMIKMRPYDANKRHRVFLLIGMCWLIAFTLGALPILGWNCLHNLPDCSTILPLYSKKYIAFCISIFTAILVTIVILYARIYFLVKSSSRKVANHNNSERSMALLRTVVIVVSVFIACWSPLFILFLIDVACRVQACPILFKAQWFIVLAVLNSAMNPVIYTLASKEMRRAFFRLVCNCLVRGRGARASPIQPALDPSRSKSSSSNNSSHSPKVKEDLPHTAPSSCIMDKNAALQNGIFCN

Paired box protein Pax-8 = Paired box protein Pax-8 (Homo sapiens, UniProt Q06710); assay: inhibitors of PAX8-driven TPO luciferase reporter, dose response, RMG-I cells, cherry-pick (AID 687027); type: functional, cell-based;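 note: luciferase reporter driven by Pax8 target thyroperoxidase promoter measured by SteadyGlo luminescence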
Chain of Paired box protein Pax-8 (Q06710 whole entry): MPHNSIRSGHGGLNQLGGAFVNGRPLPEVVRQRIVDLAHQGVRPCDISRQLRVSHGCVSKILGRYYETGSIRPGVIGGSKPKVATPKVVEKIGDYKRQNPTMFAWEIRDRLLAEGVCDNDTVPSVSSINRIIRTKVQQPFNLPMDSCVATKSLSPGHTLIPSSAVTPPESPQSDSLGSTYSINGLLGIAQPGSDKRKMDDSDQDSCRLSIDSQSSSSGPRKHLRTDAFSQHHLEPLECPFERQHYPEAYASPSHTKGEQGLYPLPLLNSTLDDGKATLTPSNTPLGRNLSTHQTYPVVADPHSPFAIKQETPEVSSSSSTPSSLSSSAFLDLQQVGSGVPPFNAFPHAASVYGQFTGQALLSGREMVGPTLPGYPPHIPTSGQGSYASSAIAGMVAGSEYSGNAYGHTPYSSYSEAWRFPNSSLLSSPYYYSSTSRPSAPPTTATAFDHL

[14] = target: Glucose-6-phosphate 1-dehydrogenase (Homo sapiens, UniProt P11413); assay: human G6PD enzyme inhibitors, dose response, selectivity assay for P. falciparum G6PD inhibitor project, biochemical, fluorescence (AID 504792); type: functional
Chain of Glucose-6-phosphate 1-dehydrogenase (P11413 whole entry): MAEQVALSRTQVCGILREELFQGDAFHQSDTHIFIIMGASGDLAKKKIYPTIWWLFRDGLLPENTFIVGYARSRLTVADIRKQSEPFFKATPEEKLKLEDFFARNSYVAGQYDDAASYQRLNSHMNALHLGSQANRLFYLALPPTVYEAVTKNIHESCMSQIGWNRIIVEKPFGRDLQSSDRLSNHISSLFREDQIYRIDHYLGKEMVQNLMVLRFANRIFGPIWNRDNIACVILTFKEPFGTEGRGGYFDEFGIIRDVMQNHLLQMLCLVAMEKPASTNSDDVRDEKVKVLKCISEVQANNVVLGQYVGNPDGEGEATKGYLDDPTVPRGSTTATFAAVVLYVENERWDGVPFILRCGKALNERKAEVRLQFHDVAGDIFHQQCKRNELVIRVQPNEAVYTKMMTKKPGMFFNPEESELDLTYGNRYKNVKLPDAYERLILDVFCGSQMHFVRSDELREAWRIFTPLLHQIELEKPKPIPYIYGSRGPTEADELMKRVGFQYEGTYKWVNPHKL

[15] = target: 5-hydroxytryptamine receptor 1E (Homo sapiens, UniProt P28566); assay: Counterscreen assay for S1P3 antagonists: Dose response cell-based high throughput screening assay to identify antagonists of the 5-Hydroxytryptamine Receptor Subtype 1E (5HT1E). [Related pubchem assays: 1429, 485 ]; type: functional
Chain of 5-hydroxytryptamine receptor 1E (P28566 whole entry): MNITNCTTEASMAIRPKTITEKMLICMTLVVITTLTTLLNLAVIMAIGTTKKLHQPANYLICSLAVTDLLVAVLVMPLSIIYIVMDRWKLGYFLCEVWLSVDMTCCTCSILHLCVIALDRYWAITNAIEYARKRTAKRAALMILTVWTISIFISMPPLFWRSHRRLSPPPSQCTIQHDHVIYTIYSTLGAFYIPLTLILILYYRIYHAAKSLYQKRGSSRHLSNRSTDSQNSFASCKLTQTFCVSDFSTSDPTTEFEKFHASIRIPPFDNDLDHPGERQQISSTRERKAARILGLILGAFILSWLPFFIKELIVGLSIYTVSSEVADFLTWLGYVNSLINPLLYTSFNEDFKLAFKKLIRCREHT

[16] = target: T1, Probable nicotinate-nucleotide adenylyltransferase (Staphylococcus aureus (strain N315), UniProt P65502); type: functional, Staphylococcus aureus subsp. aureus N315; conditions: read-out: IC50_Mean;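 for IC50 Mean: confirmatory dose-response retesting of NadD inhibitor hits first found in an ultra-high-throughput screen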
T1 sequence (P65502 whole entry): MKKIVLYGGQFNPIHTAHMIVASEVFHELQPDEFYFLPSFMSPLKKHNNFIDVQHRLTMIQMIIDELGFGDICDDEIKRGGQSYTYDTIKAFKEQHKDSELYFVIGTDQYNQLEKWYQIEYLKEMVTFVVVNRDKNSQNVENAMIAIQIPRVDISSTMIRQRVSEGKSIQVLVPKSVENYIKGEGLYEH

[17] = target: T1, Probable nicotinate-nucleotide adenylyltransferase; type: functional, Staphylococcus aureus subsp. aureus N315

Chain of Interleukin-8 (P10145 whole entry): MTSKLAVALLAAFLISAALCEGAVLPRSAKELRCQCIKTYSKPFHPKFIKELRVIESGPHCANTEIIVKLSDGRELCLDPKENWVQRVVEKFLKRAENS

In the case of `Nc1nc2ccccc2n1S(=O)(=O)c1ccccc1`, the IC50 (Interleukin-8) is reported as > 5 µM (inactive), the IC50 (Tumor necrosis factor) is reported as > 20 µM (inactive) and the IC50 (HEK293) is reported as > 20 µM (inactive).
In the case of `CN(C)CCCN=C(S)N1CCN(c2nc(-c3ccccc3)cs2)CC1`, the CC50 (Vero [1]) is reported as 25 µM (active), the IC50 (Vero [2]) is reported as 17.5 µM (active) and the IC50 (Vero [3]) is reported as > 12.5 µM (active). For the same molecule, the IC50 [4] was 6.88 µM (active), the IC50 (Vero [5]) was > 20 µM (active) and the CC50 (Vero [6]) was 15.1 µM (active). The CC50 (Vero [7]) was 13.9 µM (active).
For `CCCCOc1ccc(C2=NNC(=O)CC2)cc1`, the IC50 [8] was 4.54 µM (active) and the IC50 [9] was 13.6 µM (not active).
With `COc1ccc(NC(=O)COc2ccc3c(C)cc(=O)oc3c2)cc1S(=O)(=O)N1CCCCC1` the IC50 [10] was 5.29 µM (active) and the IC50 [11] was > 111 µM (not active).
For `Cc1nc2c(C(=O)NCCc3ccccc3Cl)cnn2c(O)c1Cl`, the IC50 [12] was 23.9 µM (active).
With `Cc1cccc(C2(c3cccc(C)c3)CC2C(=O)Nc2ccc([N+](=O)[O-])cc2O)c1` (stereo unspecified) the IC50 [13] was > 50 µM (not active), the AC50 (Paired box protein Pax-8) was 7.83 µM (active) and the IC50 [14] was > 80 µM (inactive). For the same molecule, the IC50 [15] was 5.46 µM (active), the IC50 [16] was 45.4 µM (active) and the IC50 [17] was 17 µM (active).
